Measured values from patent publication US5045566A, “Novel imidate insecticides” (ICI Americas Inc., priority 1989, dated 1991).

Assays:
Format in all cases: in vivo
[1] = test system: Housefly [Musca domestica]; experiment: Housefly contact mortality in dishes (HF), 48 hours; details: μg of test compound per 25 female flies
How it was run: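 Residual contact test: acetone dilution, 0.01% peanut oil spreader, solvent evaporated; 25 ♀ flies (1-2 d old) per cage; sugar-water plug; 48 h mortality read. LC50 in μg/25 female flies, from dose-mortality curves; top dose 100 μg/25 flies.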

[2] = test system: Black Bean Aphid [Aphis fabae (Scop.)]; experiment: Black bean aphid spray test on nasturtium (BBA), 48 hours; details: percent of test compound in sprayed solution
Protocol: The compounds in Tables 1 and 2 above were tested for insecticidal activity using the following testing procedures. LC50 values, based on the results of these tests and calculated according to dosage-mortality curves, are expressed in Table 3.
Black Bean Aphid [Aphis fabae (Scop.)]:
Nasturtium plants (Tropaeolum sp.) approximately 5 cm tall, were transplanted into sandy loam soil in small cups and infested with 25-50 black bean aphids of mixed ages. Twenty-four hours later they were sprayed to the point of runoff with 50-50 acetone-water solutions of the test compounds. Treated plants were held in the greenhouse and mortality was recorded after 48 hours. Test concentrations ranged from 0.05% downward. The LC-50 value is expressed below in Table 3 under the heading "BBA" in terms of percent of the test compound in the sprayed solution.

[3] = test system: Tobacco Budworm [Heliothis virescens (Fabricius)] eggs; experiment: Tobacco budworm eggs (TBW-E); details: percent in solution; 2-day old eggs
How it was run: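 Paper-towel patches of 2-day-old eggs dipped in acetone solutions of compound (0.1% downward), held on larval rearing medium at 78° F. Mortality scored once all control eggs had hatched and larvae were feeding; LC50 from dosage-mortality curves, expressed as percent compound in solution.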

[4] = test system: Cabbage Looper [Trichoplusia ni (Hubner)]; experiment: Cabbage looper leaf dip (CL), 3-5 days; details: percent in solution, second-instar larvae
How it was run: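 Squash cotyledons dipped 2-3 s in compound in 50-50 acetone-water, dried, then infested with 5 second-instar larvae and held at high humidity. Mortality scored after 3-5 days at concentrations from 0.1% downward. LC50 from dosage-mortality curves, expressed as percent compound in solution.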

Row | SMILES | LC50 HF [1] | LC50 BBA [2] | LC50 TBW E (eggs) [3] | LC50 CL [4]
1 | COc1ccc(Cl)cc1N=C(OCc1cccc(Oc2ccccc2)c1)C(C)C [Compound 264] | > 100 µg | > 0.05% | > 0.1% | 0.03%
2 | Cc1cc(Cl)ccc1N=C(OCc1cccc(Oc2ccccc2)c1)C(C)(C)C [Compound 109] | > 100 µg | > 0.05% | > 0.1% | 0.002%
3 | CC(C)C(=Nc1ccc2c(c1)OCO2)OCc1cccc(Oc2ccc(C(F)(F)F)cc2)c1 [Compound 246] | 60 µg | > 0.05% | > 0.1% | 0.004%
4 | CC(C)(C)C(=Nc1ccc(Br)c(Cl)c1)OCc1cccc(Oc2ccccc2)c1 [Compound 106] | > 100 µg | 0.01% | > 0.1% | 0.014%
5 | Clc1cccc(N=C(OCc2cccc(Oc3ccccc3)c2)C2CC2)c1 [Compound 24] | 25 µg | 0.01% | 0.1% | 0.005%
6 | Fc1c(F)c(F)c(COC(=Nc2cccc(Cl)c2Cl)C(Cl)Cl)c(F)c1F [Compound 454] | > 100 µg | > 0.05% | > 0.1% | 0.03%
7 | CC(C)C(=Nc1cc(C(F)(F)F)ccc1F)OCc1cccc(Oc2ccccc2)c1 [Compound 84] | 93 µg | 0.03% | 0.1% | 0.006%
8 | CC(C)C(=Nc1ccc(F)c(Cl)c1)OCc1cccc(Oc2cc(F)cc(F)c2)c1 [Compound 215] | 75 µg | 0.05% | > 0.1% | 0.00075%
9 | CC(C)CC(=Nc1ccc(C(C)C)cc1)OCc1cccc(Oc2ccc(F)cc2)c1 [Compound 329] | 7 µg | > 0.05% | > 0.1% | 0.033%
10 | CC(C)C(=Nc1cc(C(F)(F)F)cc(C(F)(F)F)c1)OCc1cccc(Oc2ccccc2)c1 [Compound 78] | > 100 µg | 0.03% | > 0.1% | 0.0025%
11 | CC(C)C(=Nc1ccc(F)c(Cl)c1)OCc1cccc(Oc2ccc(C(F)(F)F)cc2)c1 [Compound 247] | > 100 µg | > 0.05% | > 0.1% | 0.009%
12 | Cc1cc(Br)ccc1N=C(OCc1cccc(Oc2ccccc2)c1)C(C)C [Compound 133] | 66 µg | 0.003% | 0.1% | 0.005%
13 | CC(C)C(=Nc1ccc2c(c1)OC(C)(C)O2)OCc1cccc(Oc2ccc(Cl)cc2)n1 [Compound 468] | 50 µg | 0.05% | > 0.1% | > 0.1%
14 | CC(C)C(=Nc1ccc(Br)c(Br)c1)OCc1cccc(Oc2ccc(F)cc2)c1 [Compound 251] | 25 µg | 0.001% | 0.06% | 0.0005%
15 | CCC(C)C(=Nc1ccc(F)c(Cl)c1)OCc1ccc(F)c(Oc2ccccc2)c1 (stereo not shown) [Compound 261] | 24 µg | 0.002% | 0.05% | 0.001%
16 | CC(C)C(=Nc1ccc(C#N)c(F)c1)OCc1cccc(Oc2ccccc2)c1 [Compound 233] | 10 µg | 0.01% | 0.09% | 0.0017%
17 | CCC(C)C(=Nc1ccc(Cl)c(Cl)c1)OCc1cccc(Oc2ccc(F)cc2)c1 (stereo not shown) [Compound 211] | 61 µg | 0.01% | > 0.1% | 0.0017%
18 | CC(C)(C)C(=Nc1ccc(F)cc1)OCc1cccc(Oc2ccccc2)c1 [Compound 48] | > 100 µg | > 0.05% | > 0.05% | 0.03%
19 | COc1ccc(C)cc1N=C(OCc1cccc(Oc2ccccc2)c1)C(C)C [Compound 150] | 89 µg | 0.03% | > 0.1% | 0.01%
20 | CC(C)c1ccc(N=C(OCc2cccc(Oc3ccccc3)c2)C(C)(C)C)cc1 [Compound 165] | > 100 µg | > 0.05% | > 0.1% | 0.007%

Row | SMILES | LC50 HF [1] | LC50 BBA [2] | LC50 TBW E (eggs) [3] | LC50 CL [4]
21 | COCc1c(F)c(F)c(COC(=Nc2ccc3c(c2)OCO3)C(C)C)c(F)c1F [Compound 501] | 20 µg | > 0.05% | > 0.1% | 0.00045%
22 | CC(C)C(=Nc1cccc(SC(F)(F)F)c1)OCc1cccc(Oc2ccc(F)cc2)c1 [Compound 272] | > 100 µg | > 0.05% | > 0.1% | 0.0024%
23 | CC(C)C(=Nc1ccc(Cl)c(Cl)c1)OCc1cccc(Oc2ccc(F)cc2F)c1 [Compound 213] | > 100 µg | 0.01% | > 0.1% | 0.00075%
24 | CCOc1ccc(N=C(OCc2cccc(Oc3ccccc3)c2)C(C)(C)C)cc1 [Compound 164] | > 100 µg | > 0.05% | > 0.1% | 0.005%
25 | CC(C)(C)C(=Nc1cccc([N+](=O)[O-])c1)OCc1cccc(Oc2ccccc2)c1 [Compound 175] | > 100 µg | > 0.05% | > 0.1% | 0.018%
26 | COc1cc(N=C(OCc2cccc(Oc3ccccc3)c2)C(C)C)c(OC)cc1Cl [Compound 99] | > 100 µg | > 0.05% | > 0.1% | 0.016%
27 | Cc1ccc(Oc2cccc(COC(=Nc3ccc(F)cc3)C(C)C)c2)cc1 [Compound 231] | > 100 µg | 0.01% | > 0.1% | 0.003%
28 | COc1cc(N=C(OCc2cccc(Oc3ccccc3)c2)C(C)C)cc(OC)c1OC [Compound 248] | 40 µg | > 0.05% | > 0.1% | 0.02%
29 | Cc1cccc(N=C(OCc2cccc(Oc3ccccc3)c2)C(C)C)c1C [Compound 249] | 36 µg | 0.0003% | 0.035% | 0.0025%
30 | CC(C)C(=Nc1ccc(Br)cc1F)OCc1cccc(Oc2ccccc2)c1 [Compound 79] | 6 µg | 0.03% | 0.05% | 0.003%
31 | CC(C)C(=Nc1cccc(C(F)(F)F)c1)OCc1cccc(Oc2ccncc2)c1 [Compound 469] | 40 µg | > 0.05% | > 0.1% | 0.02%
32 | CC1CC1C(=Nc1ccc(Cl)cc1)OCc1cccc(Oc2ccccc2)c1 (stereo not shown) [Compound 15] | > 100 µg | > 0.05% | > 0.1% | 0.025%
33 | CC(C)C(=Nc1ccc(C(C)(C)C)cc1)OCc1cccc(Oc2ccc(F)cc2)c1 [Compound 235] | > 100 µg | 0.01% | > 0.1% | 0.004%
34 | COc1ccc(OC)c(N=C(OCc2cccc(Oc3ccccc3)c2)C(C)C)c1Cl [Compound 100] | 100 µg | > 0.05% | > 0.1% | 0.05%
35 | CC(C)C(=Nc1ccc(F)c(F)c1)OCc1cccc(Oc2ccc(F)cc2F)c1 [Compound 214] | 19 µg | 0.01% | 0.04% | 0.0003%
36 | CC(C)C(=Nc1ccc(F)cc1)OCc1cccc(Oc2ccc(F)c(F)c2)c1 [Compound 265] | 10 µg | > 0.05% | 0.07% | 0.00025%
37 | CC(C)C(=Nc1ccc2c(c1)OCO2)OCc1cc(Oc2ccc(F)cc2)ccc1Cl [Compound 274] | > 100 µg | > 0.05% | > 0.1% | 0.1%
38 | Cc1c(COC(=Nc2ccc(Cl)cc2)C(C)C)cccc1-c1ccccc1 [Compound 455] | > 100 µg | 0.01% | > 0.1% | 0.0025%
39 | COc1ccc(Oc2cccc(COC(=Nc3ccc(F)cc3)C(C)C)c2)cc1 [Compound 220] | 85 µg | 0.03% | > 0.1% | 0.007%
40 | COC(C)C(=Nc1ccc(Cl)cc1)OCc1cccc(Oc2ccccc2)c1 (stereo not shown) [Compound 22] | 15 µg | 0.01% | 0.08% | 0.004%
